Assay [1] has as its system Staphylococcus aureus. Description: Antibacterial activity against Staphylococcus aureus ATCC29213 by CLSI based serial dilution method. The format is functional.
Assay [2] relates to Staphylococcus aureus. Description: Antibacterial activity against methicillin-resistant Staphylococcus aureus 21-5 by CLSI based serial dilution method. Format: functional.
A further assay has as its system Enterococcus faecalis. The experiment in a line: Antibacterial activity against Enterococcus faecalis ATCC29212 by CLSI based serial dilution method. Format: functional.
For the next assay, the system named is Enterococcus. The experiment in a line: Antibacterial activity against vancomycin-resistant Enterococcus ATCC51299 by CLSI based serial dilution method. The format is functional.
Assay [3] concerns Escherichia coli. The experiment in a line: Antibacterial activity against Escherichia coli ATCC25922 by CLSI based serial dilution method. The format is functional.
In assay [4] the test system is Pseudomonas aeruginosa. Description: Antibacterial activity against Pseudomonas aeruginosa ATCC27853 by CLSI based serial dilution method. The format is functional.
The test system of assay [5] is Staphylococcus aureus. The experiment in a line: Inhibition of antibiotic-resistance in Staphylococcus aureus ATCC29213 at 0.5 times of MIC incubated for 20 days. Format: functional. Particulars: time 20.0 day.
The test system of assay [6] is Pseudomonas aeruginosa. Description: Anti-biofilm activity against Pseudomonas aeruginosa ATCC27853 assessed as biofilm formation rate at 8 times MIC incubated for 48 hrs by crystal violet staining based analysis relative to control. Format: functional.
Assay [7] concerns Staphylococcus aureus. Description: Bactericidal activity against Staphylococcus aureus ATCC29213 incubated upto 24 hrs by time-kill assay. The format is functional, organism-based.
In assay [8] the test system is Escherichia coli. Description: Bactericidal activity against Escherichia coli ATCC25922 incubated upto 24 hrs by time-kill assay. Format: functional, organism-based.
The test system of assay [9] is Staphylococcus aureus. The experiment in a line: Bactericidal activity against Staphylococcus aureus ATCC29213 assessed as log reduction in bacterial growth at 8 times MIC incubated for 24 hrs by time-kill assay. Format: functional.
Assay [10] has as its system Staphylococcus aureus. Description: Bactericidal activity against Staphylococcus aureus ATCC29213 at 8 times MIC incubated for 24 hrs by time-kill assay relative to control. Format: functional.
In assay [11] the test system is Escherichia coli. The experiment in a line: Bactericidal activity against Escherichia coli ATCC25922 at 8 times MIC incubated for 12 hrs by time-kill assay relative to control. The format is functional.
Assay [12] concerns Escherichia coli. The experiment in a line: Bactericidal activity against Escherichia coli ATCC25922 assessed as inhibition of bacterial regrowth at 8 times MIC incubated for 24 hrs by time-kill assay. Format: functional, organism-based.
In assay [13] the test system is Escherichia coli. The experiment in a line: Bactericidal activity against Escherichia coli ATCC25922 at MIC incubated for 24 hrs by time-kill assay. Format: functional, organism-based.
In assay [14] the test system is Staphylococcus aureus. The experiment in a line: Bactericidal activity against Staphylococcus aureus ATCC29213 at MIC incubated for 24 hrs by time-kill assay. The format is functional, organism-based.
Assay [15] relates to Staphylococcus aureus. Description: Antibacterial activity against Staphylococcus aureus ATCC29213 infected in mouse model assessed as reduction in inflammatory factors in skin at 5 mg/kg, sc measured after 24 hrs by H and E staining based analysis. Format: functional, organism-based.
The test system of assay [16] is Staphylococcus aureus. Description: Antibacterial activity against Staphylococcus aureus ATCC29213 infected in mouse model assessed as normalization of skin cell morphology at 5 mg/kg, sc measured after 24 hrs by H and E staining based analysis. The format is functional, organism-based.
Assay [17] concerns Staphylococcus aureus. The experiment in a line: Antibacterial activity against Staphylococcus aureus ATCC29213 infected in mouse model assessed as bacterial load in abscesses at 5 mg/kg, sc measured after 24 hrs. The format is functional.

Converted amounts (≈) assume the structure as drawn. The source made the active and inactive calls. No cut-off for these calls is given here.

The MIC is the lowest concentration that inhibits growth of the organism.

Take `CCCCCCN(CCCCCC)C(=O)C[N+](C)(C)CCCCOc1cc(C(C)C)ccc1C.[Br-]`: the MIC stood at 0.5 µg/mL with Staphylococcus aureus [1]; 8 µg/mL in the assay on Staphylococcus aureus [2]; 0.125 µg/mL in the assay with Enterococcus faecalis; 0.5 µg/mL against Enterococcus; 4 µg/mL with Escherichia coli [3]; 8 µg/mL with Pseudomonas aeruginosa [4]. The inhibition result in the assay on Staphylococcus aureus [5] and with Escherichia coli [12] was “Active” each time. In addition, the Activity with Pseudomonas aeruginosa [6] was 55.3%; with Staphylococcus aureus [7], “Dose-Dependent Effect”; in the assay on Escherichia coli [8] it was “Dose-Dependent Effect”; in the assay on Staphylococcus aureus [9], over 3 log10CFU/ml; in the assay with Staphylococcus aureus [10], over 99.9%; in the assay with Escherichia coli [11], 100%. Also, the outcome in the assay on Escherichia coli [13] and in the assay with Staphylococcus aureus [14] was inactive.
For `CCn1cc(C(=O)O)c(=O)c2cc(F)c(N3CCNCC3)cc21`, the inhibition result in the assay with Staphylococcus aureus [5] was “inactive”.
On to `Cc1ccc(C(C)C)cc1OCCCCC[N+](C)(C)CC(=O)N(C(C)C)C(C)C.[Br-]`, for which the MIC against Staphylococcus aureus [1] is 4 µg/mL; with Staphylococcus aureus [2], 8 µg/mL; in the assay on Enterococcus faecalis it was 8 µg/mL; with Enterococcus, 8 µg/mL; against Escherichia coli [3], 64 µg/mL; with Pseudomonas aeruginosa [4] it was over 128 µg/mL.
With `CCCCCNC(=O)C[N+](C)(C)CCCOc1cc(C(C)C)ccc1C.[Br-]`, the MIC in the assay with Staphylococcus aureus [1] came to 8 µg/mL; against Staphylococcus aureus [2] it was 32 µg/mL; against Enterococcus faecalis it was 16 µg/mL; in the assay with Enterococcus, 32 µg/mL; in the assay on Escherichia coli [3] it was 32 µg/mL; with Pseudomonas aeruginosa [4], 128 µg/mL.
Take `CCCCCCCNC(=O)C[N+](C)(C)CCCOc1cc(C)ccc1C(C)C.[Br-]`: the MIC turned out to be 1 µg/mL with Staphylococcus aureus [1]; 8 µg/mL against Staphylococcus aureus [2]; 2 µg/mL against Enterococcus faecalis; 4 µg/mL against Enterococcus; 4 µg/mL against Escherichia coli [3]; 16 µg/mL with Pseudomonas aeruginosa [4].
Consider `CCCNC(=O)C[N+](C)(C)CCCCCOc1cc(C)ccc1C(C)C.[Br-]`, for which the MIC in the assay with Staphylococcus aureus [1] was 32 µg/mL; against Staphylococcus aureus [2], 32 µg/mL; against Enterococcus faecalis, 64 µg/mL; against Enterococcus, 128 µg/mL; against Escherichia coli [3] it was 128 µg/mL; with Pseudomonas aeruginosa [4], over 128 µg/mL.
Regarding `CCCCCNC(=O)C[N+](C)(C)CCCCCOc1cc(C)ccc1C(C)C.[Br-]`, the MIC against Staphylococcus aureus [1] amounted to 8 µg/mL; in the assay on Staphylococcus aureus [2], 4 µg/mL; with Enterococcus faecalis it was 16 µg/mL; against Enterococcus it was 16 µg/mL; in the assay with Escherichia coli [3], 32 µg/mL; with Pseudomonas aeruginosa [4], 128 µg/mL.
For the molecule `CCCNC(=O)C[N+](C)(C)CCCCOc1cc(C(C)C)ccc1C.[Br-]`, the MIC in the assay with Staphylococcus aureus [1] is 64 µg/mL; against Staphylococcus aureus [2], over 128 µg/mL; against Enterococcus faecalis it was 64 µg/mL; against Enterococcus, over 128 µg/mL; in the assay on Escherichia coli [3] it was 128 µg/mL; with Pseudomonas aeruginosa [4], over 128 µg/mL.
Turning to `Cc1ccc(C(C)C)c(OCCCCC[N+](C)(C)CC(=O)N(CC(C)C)CC(C)C)c1.[Br-]`, the minimum inhibitory concentration (MIC) in the assay with Staphylococcus aureus [1] was determined as 2 µg/mL; against Staphylococcus aureus [2], 2 µg/mL; with Enterococcus faecalis, 4 µg/mL; in the assay on Enterococcus, 8 µg/mL; against Escherichia coli [3], 32 µg/mL; against Pseudomonas aeruginosa [4], 128 µg/mL.
In the case of `CCCN(CCC)C(=O)C[N+](C)(C)CCCOc1cc(C)ccc1C(C)C.[Br-]`, the minimal inhibitory concentration (MIC) against Staphylococcus aureus [1] was 16 µg/mL; against Staphylococcus aureus [2], 16 µg/mL; against Enterococcus faecalis, 32 µg/mL; against Enterococcus it was 128 µg/mL; with Escherichia coli [3] it was 128 µg/mL; with Pseudomonas aeruginosa [4], over 128 µg/mL.
As to `CN[C@H](CC(C)C)C(=O)N[C@H]1C(=O)N[C@@H](CC(N)=O)C(=O)N[C@H]2C(=O)N[C@H]3C(=O)N[C@H](C(=O)N[C@H](C(=O)O)c4cc(O)cc(O)c4-c4cc3ccc4O)[C@H](O)c3ccc(c(Cl)c3)Oc3cc2cc(c3O[C@@H]2O[C@H](CO)[C@@H](O)[C@H](O)[C@H]2O[C@H]2C[C@](C)(N)[C@H](O)[C@H](C)O2)Oc2ccc(cc2Cl)[C@H]1O` [VANCOMYCIN], the MIC against Enterococcus faecalis is 2 µg/mL (≈ 1.38 µM); against Enterococcus, over 128 µg/mL; against Escherichia coli [3], 128 µg/mL (≈ 88.3 µM); with Pseudomonas aeruginosa [4] it was over 128 µg/mL. Besides, the outcome in the assay on Staphylococcus aureus [15] and in the assay with Staphylococcus aureus [16] was Active. For the same molecule, the Activity in the assay on Staphylococcus aureus [17] is listed as 3.2 log10CFU/g.

For the origin of these results see ChEMBL document CHEMBL5608215, “Development of amphipathic derivatives of thymol and carvacrol as potent broad-spectrum antibacterial agents” (Eur J Med Chem, 2024).
